Results taken from patent publication US20200361895A1, “NOVEL SULFONAMIDE CARBOXAMIDE COMPOUNDS” (Inflazome Limited, priority 2017, published 2020).
Counter-ions that a name gives are not always drawn.

What was measured:
NLRP3 [1] = biological target: T1, NLRP3 (Homo sapiens, UniProt Q96P20); experiment: Human whole blood IL1β release assay (LPS + nigericin, AlphaLisa IL-1β; HWB IC50); format: cell-based; set-up: Human whole blood in Li-heparin tubes was obtained from healthy donors from a volunteer donor panel; from tissue; host or cells: human whole blood from healthy donors; settings: IL-1β release
Summary of the method: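 Donor Li-heparin whole blood primed with 1 μg/ml LPS, given compound (8-point half-log series, 10 μM top; DMSO 0.1% final) for 3 h at 37 °C, then nigericin 10 μM final for 1 h. Supernatant IL-1β measured by AlphaLisa; IC50 from 4-parameter variable-slope fit.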

NLRP3 [2] = biological target: T1, NLRP3; experiment: THP-1 cells pyroptosis assay (LPS + nigericin, resazurin readout; THP IC50); format: cell-based; set-up: Seed THP-1 cells (25,000 cells/well) containing 1.0 μg/ml LPS in 40 μl of RPMI medium; host or cells: THP-1 cells
Summary of the method: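 Human THP-1 cells, 25,000/well in serum-free RPMI with 1 μg/ml LPS, treated 3 hrs at 37° C with compound (8-point half-log, 10 μM top, 0.1% DMSO), then 5 μM nigericin 1 hr. Viability by 100 μM resazurin fluorescence after 1-2 hrs; IC50 by 4-parameter fit.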

T1 sequence (Q96P20 whole entry): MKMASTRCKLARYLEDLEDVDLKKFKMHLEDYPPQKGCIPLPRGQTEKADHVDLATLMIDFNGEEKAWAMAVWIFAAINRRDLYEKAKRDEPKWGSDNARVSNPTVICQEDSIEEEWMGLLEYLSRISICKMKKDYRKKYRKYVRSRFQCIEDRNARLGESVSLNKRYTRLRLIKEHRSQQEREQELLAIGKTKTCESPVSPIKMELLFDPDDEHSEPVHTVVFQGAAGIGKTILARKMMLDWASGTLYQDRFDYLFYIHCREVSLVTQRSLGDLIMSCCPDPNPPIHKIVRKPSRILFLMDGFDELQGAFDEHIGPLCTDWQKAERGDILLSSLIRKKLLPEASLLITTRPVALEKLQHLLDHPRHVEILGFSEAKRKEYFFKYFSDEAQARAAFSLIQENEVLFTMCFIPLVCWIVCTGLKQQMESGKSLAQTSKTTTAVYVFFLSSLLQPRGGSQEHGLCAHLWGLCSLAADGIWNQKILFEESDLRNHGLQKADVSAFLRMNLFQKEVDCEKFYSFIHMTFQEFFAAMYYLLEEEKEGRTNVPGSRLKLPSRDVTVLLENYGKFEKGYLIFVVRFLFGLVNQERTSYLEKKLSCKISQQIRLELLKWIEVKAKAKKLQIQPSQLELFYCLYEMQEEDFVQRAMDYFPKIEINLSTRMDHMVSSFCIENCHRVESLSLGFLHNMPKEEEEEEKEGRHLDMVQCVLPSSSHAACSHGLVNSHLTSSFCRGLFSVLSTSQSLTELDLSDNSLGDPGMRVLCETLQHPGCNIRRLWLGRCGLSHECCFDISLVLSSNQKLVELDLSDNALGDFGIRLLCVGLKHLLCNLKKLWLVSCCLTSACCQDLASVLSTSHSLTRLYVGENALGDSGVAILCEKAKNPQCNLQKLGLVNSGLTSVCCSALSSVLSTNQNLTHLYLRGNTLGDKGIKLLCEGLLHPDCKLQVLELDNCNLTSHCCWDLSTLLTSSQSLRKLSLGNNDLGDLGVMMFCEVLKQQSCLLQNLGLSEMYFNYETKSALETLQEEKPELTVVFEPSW

**Q.** Which results are given for `CC(C)n1ccc(S(=O)(=O)NC(=O)Nc2c(-c3ccnc(OC4CCOCC4)c3)ccc3c2CCC3)n1` [Example 292, 1-Isopropyl-N-((5-(2-((tetrahydro-2H-pyran-4-yl)oxy)pyridin-4-yl)-2,3-dihydro-1H-inden-4-yl)carbamoyl)-1H-pyrazole-3-sulfonamide, sodium salt]?
**A.** IC50 (NLRP3 [1]): ≤ 1000 nM; IC50 (NLRP3 [2]): ≤ 500 nM

**Q.** Which IC50 (NLRP3 [1]) does the source give for `COc1cc(-c2ccc3c(c2NC(=O)NS(=O)(=O)c2ccn(CC(C)(C)O)n2)CCC3)ccn1` [Example 186, 1-(2-Hydroxy-2-methylpropyl)-N-((5-(2-methoxypyridin-4-yl)-2,3-dihydro-1H-inden-4-yl)carbamoyl)-1H-pyrazole-3-sulfonamide] here?
**A.** Its IC50 is no more than 500 nM.

**Q.** What about the IC50 (NLRP3 [2]) of the same compound?
**A.** Its IC50 is no more than 500 nM.

**Q.** Which results are given for `COc1cc(-c2ccc3c(c2NC(=O)NS(=O)(=O)c2ccn(CCF)n2)CCC3)ccn1` [Example 249, 1-(2-Fluoroethyl)-N-((5-(2-methoxypyridin-4-yl)-2,3-dihydro-1H-inden-4-yl)carbamoyl)-1H-pyrazole-3-sulfonamide, sodium salt]?
**A.** IC50 (NLRP3 [1]): ≤ 500 nM; IC50 (NLRP3 [2]): ≤ 500 nM

**Q.** How did the IC50 (NLRP3 [1]) turn out when `COc1cc(-c2c(C)cc3c(c2NC(=O)NS(=O)(=O)c2ccn(C4CC4)n2)CCC3)ccn1` [Example 314, 1-Cyclopropyl-N-((5-(2-methoxypyridin-4-yl)-6-methyl-2,3-dihydro-1H-inden-4-yl)carbamoyl)-1H-pyrazole-3-sulfonamide] was run?
**A.** The IC50 was no more than 1000 nM.

**Q.** What about the IC50 (NLRP3 [2]) of the same compound?
**A.** The IC50 was no more than 500 nM.

**Q.** Which results are given for `COc1cc(-c2cc(F)cc(C(C)C)c2NC(=O)NS(=O)(=O)c2cn(C(C)C)cn2)ccn1` [Example 53, N-((4-Fluoro-2-isopropyl-6-(2-methoxypyridin-4-yl)phenyl)carbamoyl)-1-isopropyl-1H-imidazole-4-sulfonamide]?
**A.** IC50 (NLRP3 [1]): ≤ 5000 nM; IC50 (NLRP3 [2]): ≤ 500 nM

**Q.** What does the source list for `O=C(Nc1c(-c2ccnc(OC3CC3)c2)ccc2c1CCO2)NS(=O)(=O)c1ccn(C2CCC2)n1` [Example 266, 1-Cyclobutyl-N-((5-(2-cyclopropoxypyridin-4-yl)-2,3-dihydrobenzofuran-4-yl)carbamoyl)-1H-pyrazole-3-sulfonamide, sodium salt]?
**A.** IC50 (NLRP3 [1]): ≤ 1000 nM; IC50 (NLRP3 [2]): ≤ 500 nM

**Q.** Which IC50 (NLRP3 [1]) does the source give for `COc1cc(-c2ccc3c(c2NC(=O)NS(=O)(=O)c2nn(C(C)C)cc2F)CCC3)ccn1` [Example 239, 4-Fluoro-1-isopropyl-N-((5-(2-methoxypyridin-4-yl)-2,3-dihydro-1H-inden-4-yl)carbamoyl)-1H-pyrazole-3-sulfonamide] here?
**A.** Its IC50 is no more than 500 nM.

**Q.** What about the IC50 (NLRP3 [2]) of the same compound?
**A.** The IC50 was no more than 500 nM.

**Q.** Which results are given for `CC(C)(CN1CCC1)n1ccc(S(=O)(=O)NC(=O)Nc2c(-c3ccnc(OC4CC4)c3)ccc3c2CCC3)n1` [Example 274, 1-(1-(Azetidin-1-yl)-2-methylpropan-2-yl)-N-((5-(2-cyclopropoxypyridin-4-yl)-2,3-dihydro-1H-inden-4-yl)carbamoyl)-1H-pyrazole-3-sulfonamide, sodium salt]?
**A.** IC50 (NLRP3 [1]): ≤ 500 nM; IC50 (NLRP3 [2]): ≤ 500 nM

**Q.** With `COc1cc(-c2ccc3c(c2NC(=O)NS(=O)(=O)c2ccn(C4(CN5CCC5)CCC4)n2)CCC3)ccn1` [Example 312, 1-(1-(Azetidin-1-ylmethyl)cyclobutyl)-N-((5-(2-methoxypyridin-4-yl)-2,3-dihydro-1H-inden-4-yl)carbamoyl)-1H-pyrazole-3-sulfonamide] as the compound, how does the IC50 (NLRP3 [1]) read?
**A.** Its IC50 is no more than 500 nM.

**Q.** What about the IC50 (NLRP3 [2]) of the same compound?
**A.** The IC50 was no more than 500 nM.

**Q.** Which results are given for `COc1cc(-c2ccc3c(c2NC(=O)NS(=O)(=O)c2ccn(C4CCN(C)C4)n2)CCC3)ccn1` (stereo not drawn) [Example 199, N-((5-(2-Methoxypyridin-4-yl)-2,3-dihydro-1H-inden-4-yl)carbamoyl)-1-(1-methylpyrrolidin-3-yl)-1H-pyrazole-3-sulfonamide, sodium salt]?
**A.** IC50 (NLRP3 [1]): ≤ 500 nM; IC50 (NLRP3 [2]): ≤ 500 nM

**Q.** `COc1cc(-c2ccc3c(c2NC(=O)NS(=O)(=O)c2ccn(C(C)C)n2)CCC3)ccn1` [Example 56, 1-Isopropyl-N-((5-(2-methoxypyridin-4-yl)-2,3-dihydro-1H-inden-4-yl)carbamoyl)-1H-pyrazole-3-sulfonamide] was tested. Which IC50 (NLRP3 [1]) did it give?
**A.** Its IC50 is no more than 500 nM.

**Q.** And the IC50 (NLRP3 [2])?
**A.** The IC50 was no more than 500 nM.

**Q.** What does the source list for `Cc1cc(C)nc(S(=O)(=O)NC(=O)Nc2c(-c3ccnc(C#N)c3)cc(F)cc2C(C)C)n1` [Example 114, N-((2-(2-Cyanopyridin-4-yl)-4-fluoro-6-isopropylphenyl)carbamoyl)-4,6-dimethylpyrimidine-2-sulfonamide]?
**A.** IC50 (NLRP3 [1]): ≤ 5000 nM; IC50 (NLRP3 [2]): ≤ 500 nM

**Q.** How did the IC50 (NLRP3 [1]) turn out when `CC(C)n1cnc(S(=O)(=O)NC(=O)Nc2c(-c3ccnc(C#N)c3)ccc3c2CCC3)n1` [Example 228, N-((5-(2-Cyanopyridin-4-yl)-2,3-dihydro-1H-inden-4-yl)carbamoyl)-1-isopropyl-1H-1,2,4-triazole-3-sulfonamide, sodium salt] was run?
**A.** The IC50 was no more than 500 nM.

**Q.** What about the IC50 (NLRP3 [2]) of the same compound?
**A.** The IC50 was no more than 500 nM.

**Q.** Which results are given for `COc1cc(-c2ccc3c(c2NC(=O)NS(=O)(=O)c2ccc(CN(C)C)nc2)CCC3)ccn1` [Example 176, 6-((Dimethylamino)methyl)-N-((5-(2-methoxypyridin-4-yl)-2,3-dihydro-1H-inden-4-yl)carbamoyl)pyridine-3-sulfonamide]?
**A.** IC50 (NLRP3 [1]): ≤ 500 nM; IC50 (NLRP3 [2]): ≤ 500 nM

**Q.** For `COc1cc(-c2ccc3c(c2NC(=O)NS(=O)(=O)c2ccn(C(C)(C)CN4CC(F)C4)n2)CCO3)ccn1` [Example 307, 1-(1-(3-Fluoroazetidin-1-yl)-2-methylpropan-2-yl)-N-((5-(2-methoxypyridin-4-yl)-2,3-dihydrobenzofuran-4-yl)carbamoyl)-1H-pyrazole-3-sulfonamide], which IC50 (NLRP3 [1]) is on record?
**A.** Its IC50 is no more than 500 nM.

**Q.** And the IC50 (NLRP3 [2])?
**A.** The IC50 was no more than 500 nM.

**Q.** Which results are given for `COc1cc(-c2ccc3c(c2NC(=O)NS(=O)(=O)c2ccn(C(C)(C)CN4CC(F)(F)C4)n2)CCC3)ccn1` [Example 306, 1-(1-(3,3-Difluoroazetidin-1-yl)-2-methylpropan-2-yl)-N-((5-(2-methoxypyridin-4-yl)-2,3-dihydro-1H-inden-4-yl)carbamoyl)-1H-pyrazole-3-sulfonamide]?
**A.** IC50 (NLRP3 [1]): ≤ 500 nM; IC50 (NLRP3 [2]): ≤ 500 nM

**Q.** Which IC50 (NLRP3 [1]) does the source give for `CCn1nc(S(=O)(=O)NC(=O)Nc2c(-c3ccnc(OC)c3)cc(F)c3c2CCC3)cc1CN(C)C` [Example 66, 5-((Dimethylamino)methyl)-1-ethyl-N-((7-fluoro-5-(2-methoxypyridin-4-yl)-2,3-dihydro-1H-inden-4-yl)carbamoyl)-1H-pyrazole-3-sulfonamide] here?
**A.** The IC50 was no more than 500 nM.

**Q.** What about the IC50 (NLRP3 [2]) of the same compound?
**A.** Its IC50 is no more than 500 nM.

**Q.** For `O=C(Nc1c(-c2ccnc(OC(F)F)c2)ccc2c1CCO2)NS(=O)(=O)c1ccn(C2CCC2)n1` [Example 275, 1-Cyclobutyl-N-((5-(2-(difluoromethoxy)pyridin-4-yl)-2,3-dihydrobenzofuran-4-yl)carbamoyl)-1H-pyrazole-3-sulfonamide, sodium salt], which IC50 (NLRP3 [1]) is on record?
**A.** The IC50 was no more than 500 nM.

**Q.** What about the IC50 (NLRP3 [2]) of the same compound?
**A.** Its IC50 is no more than 500 nM.

**Q.** What does the source list for `CC(C)n1ccc(S(=O)(=O)NC(=O)Nc2c(-c3ccnc(OCCO)c3)ccc3c2CCC3)n1` [Example 299, N-((5-(2-(2-Hydroxyethoxy)pyridin-4-yl)-2,3-dihydro-1H-inden-4-yl)carbamoyl)-1-isopropyl-1H-pyrazole-3-sulfonamide]?
**A.** IC50 (NLRP3 [1]): ≤ 500 nM; IC50 (NLRP3 [2]): ≤ 500 nM

**Q.** Which results are given for `O=C(Nc1c(-c2ccnc(OC3CC3)c2)ccc2c1CCC2)NS(=O)(=O)c1ccn(C2CC2)n1` [Example 261, N-((5-(2-Cyclopropoxypyridin-4-yl)-2,3-dihydro-1H-inden-4-yl)carbamoyl)-1-cyclopropyl-1H-pyrazole-3-sulfonamide, sodium salt]?
**A.** IC50 (NLRP3 [1]): ≤ 5000 nM; IC50 (NLRP3 [2]): ≤ 500 nM

**Q.** For `COc1cc(-c2ccc3c(c2NC(=O)NS(=O)(=O)c2cnn(C4CC4)c2)CCC3)ccn1` [Example 145, 1-Cyclopropyl-N-((5-(2-methoxypyridin-4-yl)-2,3-dihydro-1H-inden-4-yl)carbamoyl)-1H-pyrazole-4-sulfonamide], which IC50 (NLRP3 [1]) is on record?
**A.** Its IC50 is no more than 1000 nM.

**Q.** What about the IC50 (NLRP3 [2]) of the same compound?
**A.** The IC50 was no more than 500 nM.
